Test results published in patent US20230274811A1, “METHODS OF MAKING PROSTATE CANCER TREATMENT DECISIONS” (Progenics Pharmaceuticals, Inc., priority 2020, published 2023).
“And” between values parts separate entries of the source, which are not always exact repeats. Equal entries are not always repeated. “Also recorded” adds a separate entry of the source. Where two headings read alike, the source gives them in different places.

Experiments:
[1] = system: pelvic lymph node metastases; test: OSPREY Cohort A: 18F-DCFPyL PET/CT detection of pelvic lymph node metastases vs histopathology; assay type: in vivo, men; settings: for NPV % (95% CI) / PPV % (95% CI) / Sensitivity % (95% CI) / Specificity % (95% CI): N=252
Description: Histopathology served as the reference standard to which imaging findings were compared. FIG. 1 provides information regarding the study design and cohorts.
Imaging findings were compared to histopathology as the truth standard.
In OSPREY, 268 patients at high risk for pelvic lymph node metastasis who were planned for initial definitive therapy underwent PyLARIFY imaging. […] PyLARIFY and baseline conventional imaging reader interpretations were compared to pathologic staging of pelvic nodal metastases.

[2] = system: primary tumor in the gland; test: OSPREY Cohort A: 18F-DCFPyL PET/CT detection of primary tumor in the prostate gland vs surgical pathology; assay type: in vivo, men
Description: Sensitivity, specificity, PPV and NPV of ^18F-DCFPyL PET/CT for detecting primary tumor in the gland and pelvic lymph node metastases were compared to conventional imaging (CI), either CT or MRI. Three central, blinded, and independent readers evaluated the ^18F-DCFPyL scans and one blinded central reader interpreted the CI. Imaging results were compared to surgical pathology as the truth standard.

[3] = system: PSMA-positive PC3 PIP tumor; test: Uptake in mouse xenografts; assay type: in vivo; settings: PSMA-positive PC3 PIP vs PSMA-negative PC3 flu tumors
[4] = system: PCa recurrence or metastases; test: OSPREY Cohort B sub-analysis: staging changes vs conventional imaging; assay type: in vivo, men
Procedure: Methods ^18F-DCFPyL-PET/CT was evaluated in 117 men with radiologic evidence of local recurrence or metastatic disease on baseline anatomical imaging (CT, MRI) or whole-body bone scintigraphy and in whom at least one lesion was deemed amenable to biopsy. […] Based on TNM staging: prostatic (T), pelvic LN (N), extra-pelvic LN (M1a), bone (M1b) and other visceral organs/soft tissue (M1c), ^18F-DCFPyL-PET/CT detection rates including lesion counts were systematically analyzed. Three central, blinded, and independent readers evaluated the ^18F-DCFPyL scans.

high-risk PCa = test: OSPREY Cohort A sub-analysis: TNM staging by 18F-DCFPyL PET/CT at initial staging; assay type: in vivo; settings: 252 men
Description: Three central, blinded, and independent readers evaluated the ^18F-DCFPyL scans.

[5] = OSPREY safety (adverse events); assay type: in vivo, men
Procedure: The coprimary endpoints of sensitivity and specificity of ^18F-DCFPyL PET/CT for detecting pelvic lymph node metastases were evaluated in Cohort A. Secondary endpoints included safety in both cohorts, positive predictive value (PPV) and negative predictive value (NPV) in Cohort A, and sensitivity and PPV in Cohort B. Three central, blinded, and independent readers evaluated the ^18F-DCFPyL scans. Histopathology served as the reference standard to which imaging findings were compared. FIG. 1 provides information regarding the study design and cohorts.
Co-primary endpoints of specificity and sensitivity of ^18F-DCFPyL PET/CT for detecting prostate cancer metastases in pelvic lymph nodes were evaluated in Cohort A. Key secondary endpoints included incidence of adverse events, positive predictive value (PPV) and negative predictive value (NPV) of ^18F-DCFPyL PET/CT imaging to detect pelvic lymph node metastases in Cohort A, sensitivity and PPV of ^18F-DCFPyL PET/CT imaging to detect prostate cancer within sites of metastasis or recurrence in Cohort B. Three central, blinded, and independent readers evaluated the ^18F-DCFPyL scans. Imaging findings were compared to histopathology as the truth standard.
Pts underwent image-guided biopsy.

[6] = CONDOR safety (adverse events); assay type: in vivo, men
Description: Pre- and post-treatment assessments also included vital signs and concomitant medications/procedures.

Q: For `O=C(O)CC[C@H](NC(=O)N[C@@H](CCCCNC(=O)c1ccc([18F])nc1)C(=O)O)C(=O)O` [18F-DCFPyL, 2-(3-{1-carboxy-5-[(6-[^18F]fluoro-pyridine-3-carbonyl)-amino]-pentyl}ureido)-pentanedioic acid], which “NPV, range among three readers” value ([1]; Cohort A, n=252 evaluable) is on record?
A: The value was 81.4-83.8% and 81-84%.

Q: And the “PPV, range among three readers” value ([1]; Cohort A, n=252 evaluable)?
A: Its value is 78.1-90.5% and 78-91%.

Q: And the “Sensitivity, range among three readers” value ([1]; Cohort A, n=252 evaluable)?
A: The value was 30.6-41.9% and 31-42%.

Q: And the “Specificity, range among three readers” value ([1]; Cohort A, n=252 evaluable)?
A: The value was 96.3-98.9% and 96-99%.

Q: What about the “Sensitivity, range among three readers” value ([1]; Cohort A, restricted to median lymph node metastases >4 mm) of the same compound?
A: Its value is 51.7-65.5%.

Q: What about the “NPV % (95% CI)” value ([1]; Reader 1) of the same compound?
A: The value was 84 (80, 89) %.

Q: What about the “PPV % (95% CI)” value ([1]; Reader 1) of the same compound?
A: Its value is 87 (70, 95) %.

Q: What about the “Sensitivity % (95% CI)” value ([1]; Reader 1) of the same compound?
A: Its value is 42 (30, 54) %.

Q: What about the “Specificity % (95% CI)” value ([1]; Reader 1) of the same compound?
A: The value was 98 (95, 99) %.

Q: And the “NPV % (95% CI)” value ([1]; Reader 2)?
A: Its value is 81 (76, 86) %.

Q: And the “PPV % (95% CI)” value ([1]; Reader 2)?
A: Its value is 91 (70, 99) %.

Q: And the “Sensitivity % (95% CI)” value ([1]; Reader 2)?
A: The value was 31 (19, 42) %.

Q: And the “Specificity % (95% CI)” value ([1]; Reader 2)?
A: The value was 99 (96, 100) %.

Q: And the “NPV % (95% CI)” value ([1]; Reader 3)?
A: Its value is 83 (78, 87) %.

Q: What about the “PPV % (95% CI)” value ([1]; Reader 3) of the same compound?
A: Its value is 78 (64, 93) %.

Q: And the “Sensitivity % (95% CI)” value ([1]; Reader 3)?
A: Its value is 40 (28, 53) %.

Q: And the “Specificity % (95% CI)” value ([1]; Reader 3)?
A: Its value is 96 (94, 99) %.

Q: What about the “PPV, median of 3 readers” value [2] of the same compound?
A: Its value is 100% (0.98, 1.0).

Q: What about the “Sensitivity, median of 3 readers” value [2] of the same compound?
A: The value was 98.0% (0.96, 1.0).

Q: What about the “Sensitivity, median of 3 readers” value ([2]; listed as PyL) of the same compound?
A: Its value is 98%.

Q: What about the “uptake in mouse xenografts” value [3] of the same compound?
A: Its value is “taken up only in PSMA-positive PC3 PIP tumor and not in PSMA-negative PC3 flu tumors”.

Q: And the “up-staged pts with extra-pelvic biopsy confirmed M1 by pathology” value ([4]; 10/11)?
A: The value was 91%.

Q: What about the “baseline M1 pts upstaged to a higher M1 sub-stage” value ([4]; 10/64) of the same compound?
A: Its value is 16%.

Q: What about the “baseline M1 pts down-staged to M0” value ([4]; 18/82) of the same compound?
A: The value was 22%.

Q: And the “pts up-staged from M0 to M1” value ([4]; 19/33 M0 at baseline by conventional imaging)?
A: The value was 58%.

Q: What about the “patients upstaged to N1 or M1 disease” value (high-risk PCa) of the same compound?
A: Its value is 22%.

Q: And the “pts staged M1a” value (high-risk PCa)?
A: Its value is 0.4%.

Q: And the “pts staged M1b” value (high-risk PCa)?
A: Its value is 9.1%.

Q: And the “pts staged M1c” value (high-risk PCa)?
A: The value was 1.2%.

Q: And the “pts staged with M1 disease” value (high-risk PCa)?
A: The value was 10.7%.

Q: And the “pts staged with N1 disease” value (high-risk PCa; no known nodal/metastatic disease on standard imaging)?
A: Its value is 14.7%.

Q: What about the “drug-related serious adverse events” value ([5]; 385 men, both cohorts) of the same compound?
A: The value was “No drug-related serious adverse events were observed”.

Q: What about the “dysgeusia, drug-related AE incidence” value ([5]; 385 men, both cohorts) of the same compound?
A: The value was 2.1%.

Q: What about the “headache, drug-related AE incidence” value ([5]; 385 men, both cohorts) of the same compound?
A: The value was 2.1%.

Q: And the “men with ≥1 drug-related adverse event” value ([5]; 385 men, both cohorts)?
A: The value was 7.0%.

Q: And the “severity of drug-related AEs (dysgeusia and generalized rash)” value ([5]; Cohort B)?
A: Its value is “mild (Grade 1)”.

Q: What about the “pts with ≥1 drug-related AE” value ([5]; Cohort B, 117 men) of the same compound?
A: The value was 1.7%.

Q: What about the tolerability ([5]; OSPREY) of the same compound?
A: The tolerability was “generally well tolerated”.

Q: What about the “patients experiencing AEs” value ([6]; 14 patients, 21 AEs) of the same compound?
A: Its value is 6.7%.

Q: What about the “drug-related serious adverse event” value ([6]; 208 men) of the same compound?
A: Its value is “A single serious adverse event (AE) was reported as related to study drug (hypersensitivity); also recorded: hypersensitivity was the single drug-related Grade 3 AE”.

Q: And the “fatigue, AE incidence” value ([6]; 208 men)?
A: The value was 1.0%.

Q: And the “headache, AE incidence” value ([6]; 208 men)?
A: Its value is 1.9%.

Q: And the “hypertension, AE incidence” value ([6]; 208 men)?
A: Its value is 1.0%.

Q: What about the “drug-related serious adverse event” value ([6]; 208 men, listed as PyL) of the same compound?
A: The value was “one drug-related SAE (hypersensitivity)”.

Q: What about the tolerability ([6]; CONDOR) of the same compound?
A: Its tolerability is “well tolerated”.

Q: And the “Grade 4 AEs, deaths, AEs leading to discontinuation” value ([6]; in vivo)?
A: The value was “There were no Grade 4 AEs, nor were there deaths or AEs that led to discontinuation of the study”.

Q: And the “changes in vital signs pre- to post-dosing” value ([6]; in vivo)?
A: Its value is “No clinically relevant changes in vital signs were observed”.

Q: What about the “patients with Grade 3, serious AEs (hypersensitivity, headache, paresthesia)” value ([6]; one patient) of the same compound?
A: Its value is 0.5%.

Q: What about the “AEs in case studies 1-3” value ([6]; single patients) of the same compound?
A: The value was “No AEs were reported”.
